Data on two molecules can be found in US20260284018A1, “DUAL INHIBITORS OF DYRK1A AND 5-HT2 FOR TREATING A BRAIN DISORDER” (THE REGENTS OF THE UNIVERSITY OF CALIFORNIA, priority 2023, published 2026).

One experiment has as its system 97 kinases. Kind of experiment: KINOMEscan scanEDGE, whole panel. The format is binding. The note with it: 10 μM. How it is done:
Compounds were screened at 10 μM using the DiscoverX KinomeSCAN™ assay. Results are reported as the % activity relative to the vehicle (i.e., DMSO) control, where lower values indicate higher affinity (see Table 1 for full scan data). The activity of HTW_A_8 fumarate at PIK3CG was minimal (33%) and barely met the threshold for inclusion. […] Data for harmine were obtained from a previous report.
Kinome Scan. Compound HTW_A_8 fumarate was screened against 97 kinases at a single concentration of 10 μM at Eurofins DiscoverX using their KINOMEscan™ scanEDGE assay. The results are reported as the % activity relative to DMSO control, where lower values indicate higher affinity. See Table 1 for the full kinome profile.

A further experiment deals with T1, AURKA (Homo sapiens, UniProt O14965).
T1 construct: purchased Eurofins DiscoverX
The note with it: 10 μM; cited from earlier work.

Another experiment addresses T2, AXL (Homo sapiens, UniProt P30530).
T2 construct: purchased Eurofins DiscoverX
The note with it: 10 μM; cited from earlier work.

The next experiment addresses T3, BRAF (Homo sapiens, UniProt P15056).
T3 construct: purchased Eurofins DiscoverX
The conditions noted are these: 10 μM; cited from earlier work.

The next experiment has as its target T4, BTK (Homo sapiens, UniProt Q06187).
T4 construct: purchased Eurofins DiscoverX
The note with it: 10 μM; cited from earlier work.

The target of another experiment is T5, CDK2 (Homo sapiens, UniProt P24941).
T5 construct: purchased Eurofins DiscoverX
The note with it: 10 μM; cited from earlier work.

In the next experiment the target is T6, CDK3 (Homo sapiens, UniProt Q00526).
T6 construct: purchased Eurofins DiscoverX
The conditions noted are these: 10 μM; cited from earlier work.

The target of the next experiment is T7, CDK7 (Homo sapiens, UniProt P50613).
T7 construct: purchased Eurofins DiscoverX
The note with it: 10 μM; cited from earlier work.

Another experiment has as its target T8, DYRK1B (Homo sapiens, UniProt Q9Y463).
T8 construct: purchased Eurofins DiscoverX
The note with it: 10 μM; cited from earlier work.

The target of a further experiment is T9, EGFR(L858R) (Homo sapiens, UniProt P00533, L858R).
T9 construct: purchased Eurofins DiscoverX
The note with it: 10 μM; cited from earlier work.

A further experiment addresses T10, ERBB4 (Homo sapiens, UniProt Q15303).
T10 construct: purchased Eurofins DiscoverX
The conditions noted are these: 10 μM; cited from earlier work.

The target of a further experiment is T11, FAK (Homo sapiens, UniProt Q05397).
T11 construct: purchased Eurofins DiscoverX
T11 sequence (Q05397 whole entry): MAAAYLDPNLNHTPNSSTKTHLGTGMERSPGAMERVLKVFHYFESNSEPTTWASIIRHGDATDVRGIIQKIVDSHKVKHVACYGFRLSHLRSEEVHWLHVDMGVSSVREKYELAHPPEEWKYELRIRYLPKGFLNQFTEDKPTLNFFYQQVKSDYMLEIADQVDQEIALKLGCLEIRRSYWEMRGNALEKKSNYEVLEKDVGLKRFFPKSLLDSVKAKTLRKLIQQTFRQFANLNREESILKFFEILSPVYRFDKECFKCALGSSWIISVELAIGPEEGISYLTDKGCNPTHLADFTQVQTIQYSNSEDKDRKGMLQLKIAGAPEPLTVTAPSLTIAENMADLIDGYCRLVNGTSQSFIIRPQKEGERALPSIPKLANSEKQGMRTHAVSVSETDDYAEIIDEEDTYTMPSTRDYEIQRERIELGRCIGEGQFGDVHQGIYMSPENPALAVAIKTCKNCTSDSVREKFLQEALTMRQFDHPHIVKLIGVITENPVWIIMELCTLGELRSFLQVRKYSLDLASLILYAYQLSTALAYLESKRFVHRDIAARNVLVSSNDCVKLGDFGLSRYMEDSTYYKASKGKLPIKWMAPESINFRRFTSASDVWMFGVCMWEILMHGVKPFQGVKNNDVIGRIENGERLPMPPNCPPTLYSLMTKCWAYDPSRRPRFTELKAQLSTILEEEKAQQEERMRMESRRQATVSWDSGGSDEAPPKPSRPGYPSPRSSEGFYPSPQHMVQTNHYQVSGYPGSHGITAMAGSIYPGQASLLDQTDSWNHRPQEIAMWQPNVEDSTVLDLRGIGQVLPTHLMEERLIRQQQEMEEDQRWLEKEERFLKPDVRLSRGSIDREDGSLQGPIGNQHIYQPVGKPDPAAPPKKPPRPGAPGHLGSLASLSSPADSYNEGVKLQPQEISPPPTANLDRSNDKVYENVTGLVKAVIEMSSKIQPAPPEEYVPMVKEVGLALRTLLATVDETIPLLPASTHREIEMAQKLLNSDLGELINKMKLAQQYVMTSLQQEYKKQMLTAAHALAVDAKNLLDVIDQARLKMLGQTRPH
The conditions noted are these: 10 μM; cited from earlier work.

A further experiment deals with T12, FGFR2 (Homo sapiens, UniProt P21802).
T12 construct: purchased Eurofins DiscoverX
The conditions noted are these: 10 μM; cited from earlier work.

Another experiment deals with T13, FGFR3 (Homo sapiens, UniProt P22607).
T13 construct: purchased Eurofins DiscoverX
The note with it: 10 μM; cited from earlier work.

The next experiment deals with T14, IKK-beta (Homo sapiens, UniProt O14920).
T14 construct: purchased Eurofins DiscoverX
The conditions noted are these: 10 μM; cited from earlier work.

Another experiment addresses T15, INSR (Homo sapiens, UniProt P06213).
T15 construct: purchased Eurofins DiscoverX
The note with it: 10 μM; cited from earlier work.

The target in experiment [1] is T16, JAK3(JH1domain-catalytic) (Homo sapiens, UniProt P52333).
T16 construct: JAK3(JH1domain-catalytic); purchased Eurofins DiscoverX
T16 sequence (P52333 822-1111 limits assumed): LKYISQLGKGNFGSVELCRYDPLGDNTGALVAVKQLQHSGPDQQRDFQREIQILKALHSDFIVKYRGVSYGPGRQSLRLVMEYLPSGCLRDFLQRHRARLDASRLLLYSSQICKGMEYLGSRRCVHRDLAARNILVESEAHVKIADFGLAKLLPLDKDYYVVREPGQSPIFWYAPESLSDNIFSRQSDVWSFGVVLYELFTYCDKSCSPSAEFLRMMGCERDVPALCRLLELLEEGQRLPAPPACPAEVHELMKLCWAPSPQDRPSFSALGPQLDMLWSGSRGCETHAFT
The conditions noted are these: 10 μM; cited from earlier work.

A further experiment deals with T17, JNK2 (Homo sapiens, UniProt P45984).
T17 construct: purchased Eurofins DiscoverX
The conditions noted are these: 10 μM; cited from earlier work.

The next experiment has as its target T18, JNK3 (Homo sapiens, UniProt P53779).
T18 construct: purchased Eurofins DiscoverX
The note with it: 10 μM; cited from earlier work.

The next experiment has as its target T19, MAPKAPK2 (Homo sapiens, UniProt P49137).
T19 construct: purchased Eurofins DiscoverX (KINOMEscan scanEDGE service)
The note with it: 10 μM; cited from earlier work.

For the next experiment, the target named is T20, MEK1 (Homo sapiens, UniProt Q02750).
T20 construct: purchased Eurofins DiscoverX (KINOMEscan scanEDGE service)
T20 sequence (Q02750 whole entry): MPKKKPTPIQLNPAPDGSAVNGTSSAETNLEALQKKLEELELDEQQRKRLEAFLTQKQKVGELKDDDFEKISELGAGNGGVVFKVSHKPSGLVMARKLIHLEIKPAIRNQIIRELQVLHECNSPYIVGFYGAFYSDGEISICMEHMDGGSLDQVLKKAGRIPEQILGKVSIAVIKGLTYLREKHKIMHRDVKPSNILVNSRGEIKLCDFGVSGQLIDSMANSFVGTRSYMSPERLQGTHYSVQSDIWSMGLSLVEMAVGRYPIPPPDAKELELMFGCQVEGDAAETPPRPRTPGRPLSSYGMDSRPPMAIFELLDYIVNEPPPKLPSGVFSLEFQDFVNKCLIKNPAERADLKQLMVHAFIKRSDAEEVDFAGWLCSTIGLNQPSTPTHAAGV
The conditions noted are these: 10 μM; cited from earlier work.

For another experiment, the target named is T21, MET (Homo sapiens, UniProt P08581).
T21 construct: purchased Eurofins DiscoverX (KINOMEscan scanEDGE service)
The note with it: 10 μM; cited from earlier work.

A further experiment concerns the target T22, MKNK2 (Homo sapiens, UniProt Q9HBH9).
T22 construct: purchased Eurofins DiscoverX (KINOMEscan scanEDGE service)
The note with it: 10 μM; cited from earlier work.

A further experiment concerns the target T23, p38-alpha (Homo sapiens, UniProt Q16539).
T23 construct: purchased Eurofins DiscoverX (KINOMEscan scanEDGE service)
The conditions noted are these: 10 μM; cited from earlier work.

For another experiment, the target named is T24, p38-beta (Homo sapiens, UniProt Q15759).
T24 construct: purchased Eurofins DiscoverX (KINOMEscan scanEDGE service)
The conditions noted are these: 10 μM; cited from earlier work.

The next experiment concerns the target T25, PDGFRA (Homo sapiens, UniProt P16234).
T25 construct: purchased Eurofins DiscoverX (KINOMEscan scanEDGE service)
The note with it: 10 μM; cited from earlier work.

A further experiment deals with T26, PLK1 (Homo sapiens, UniProt P53350).
T26 construct: purchased Eurofins DiscoverX KINOMEscan scanEDGE
The note with it: 10 μM; cited from earlier work.

For the next experiment, the target named is T27, PRKCE (Homo sapiens, UniProt Q02156).
T27 construct: purchased Eurofins DiscoverX KINOMEscan scanEDGE
T27 sequence (Q02156 whole entry): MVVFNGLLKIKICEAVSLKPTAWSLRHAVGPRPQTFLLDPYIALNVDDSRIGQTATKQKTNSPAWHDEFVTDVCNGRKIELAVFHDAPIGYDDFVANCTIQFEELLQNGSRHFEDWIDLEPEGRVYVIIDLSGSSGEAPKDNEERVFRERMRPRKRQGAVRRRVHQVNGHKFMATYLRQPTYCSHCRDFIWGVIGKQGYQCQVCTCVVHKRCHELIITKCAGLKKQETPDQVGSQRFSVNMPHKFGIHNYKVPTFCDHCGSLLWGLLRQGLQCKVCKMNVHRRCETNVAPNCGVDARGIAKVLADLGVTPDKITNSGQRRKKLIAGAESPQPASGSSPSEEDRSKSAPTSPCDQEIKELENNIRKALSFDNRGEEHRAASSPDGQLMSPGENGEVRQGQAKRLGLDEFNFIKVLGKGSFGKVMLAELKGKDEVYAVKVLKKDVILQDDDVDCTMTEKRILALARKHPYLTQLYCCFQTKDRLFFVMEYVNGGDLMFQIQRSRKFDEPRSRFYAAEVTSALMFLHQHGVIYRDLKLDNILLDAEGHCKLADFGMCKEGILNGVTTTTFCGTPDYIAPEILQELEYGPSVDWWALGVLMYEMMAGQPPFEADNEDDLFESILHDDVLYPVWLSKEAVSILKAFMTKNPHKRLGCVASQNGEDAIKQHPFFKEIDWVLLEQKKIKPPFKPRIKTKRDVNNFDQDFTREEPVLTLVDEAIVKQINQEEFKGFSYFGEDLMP
The note with it: 10 μM; cited from earlier work.

For the next experiment, the target named is T28, RIOK2 (Homo sapiens, UniProt Q9BVS4).
T28 construct: purchased Eurofins DiscoverX KINOMEscan scanEDGE
The conditions noted are these: 10 μM; cited from earlier work.

In experiment [2] the target is T29, RSK2(Kin.Dom.1-N-terminal) (Homo sapiens, UniProt P51812).
T29 construct: RSK2(Kin.Dom.1-N-terminal); purchased Eurofins DiscoverX KINOMEscan scanEDGE
The note with it: 10 μM; cited from earlier work.

The next experiment has as its target T30, SRPK3 (Homo sapiens, UniProt Q9UPE1).
T30 construct: purchased Eurofins DiscoverX KINOMEscan scanEDGE
The note with it: 10 μM; cited from earlier work.

A further experiment concerns the target T31, TIE2 (Homo sapiens, UniProt Q02763).
T31 construct: purchased Eurofins DiscoverX KINOMEscan scanEDGE
The conditions noted are these: 10 μM; cited from earlier work.

Another experiment has as its target T32, TRKA (Homo sapiens, UniProt P04629).
T32 construct: purchased Eurofins DiscoverX KINOMEscan scanEDGE
The note with it: 10 μM; cited from earlier work.

The target in experiment [3] is T33, TYK2(JH1domain-catalytic) (Homo sapiens, UniProt P29597).
T33 construct: TYK2(JH1domain-catalytic); purchased Eurofins DiscoverX KINOMEscan scanEDGE
The note with it: 10 μM; cited from earlier work.

Another experiment deals with T34, YANK3 (Homo sapiens, UniProt Q86UX6).
T34 construct: purchased Eurofins DiscoverX KINOMEscan scanEDGE
The conditions noted are these: 10 μM; cited from earlier work.

T10 sequence (Q15303 26-1308): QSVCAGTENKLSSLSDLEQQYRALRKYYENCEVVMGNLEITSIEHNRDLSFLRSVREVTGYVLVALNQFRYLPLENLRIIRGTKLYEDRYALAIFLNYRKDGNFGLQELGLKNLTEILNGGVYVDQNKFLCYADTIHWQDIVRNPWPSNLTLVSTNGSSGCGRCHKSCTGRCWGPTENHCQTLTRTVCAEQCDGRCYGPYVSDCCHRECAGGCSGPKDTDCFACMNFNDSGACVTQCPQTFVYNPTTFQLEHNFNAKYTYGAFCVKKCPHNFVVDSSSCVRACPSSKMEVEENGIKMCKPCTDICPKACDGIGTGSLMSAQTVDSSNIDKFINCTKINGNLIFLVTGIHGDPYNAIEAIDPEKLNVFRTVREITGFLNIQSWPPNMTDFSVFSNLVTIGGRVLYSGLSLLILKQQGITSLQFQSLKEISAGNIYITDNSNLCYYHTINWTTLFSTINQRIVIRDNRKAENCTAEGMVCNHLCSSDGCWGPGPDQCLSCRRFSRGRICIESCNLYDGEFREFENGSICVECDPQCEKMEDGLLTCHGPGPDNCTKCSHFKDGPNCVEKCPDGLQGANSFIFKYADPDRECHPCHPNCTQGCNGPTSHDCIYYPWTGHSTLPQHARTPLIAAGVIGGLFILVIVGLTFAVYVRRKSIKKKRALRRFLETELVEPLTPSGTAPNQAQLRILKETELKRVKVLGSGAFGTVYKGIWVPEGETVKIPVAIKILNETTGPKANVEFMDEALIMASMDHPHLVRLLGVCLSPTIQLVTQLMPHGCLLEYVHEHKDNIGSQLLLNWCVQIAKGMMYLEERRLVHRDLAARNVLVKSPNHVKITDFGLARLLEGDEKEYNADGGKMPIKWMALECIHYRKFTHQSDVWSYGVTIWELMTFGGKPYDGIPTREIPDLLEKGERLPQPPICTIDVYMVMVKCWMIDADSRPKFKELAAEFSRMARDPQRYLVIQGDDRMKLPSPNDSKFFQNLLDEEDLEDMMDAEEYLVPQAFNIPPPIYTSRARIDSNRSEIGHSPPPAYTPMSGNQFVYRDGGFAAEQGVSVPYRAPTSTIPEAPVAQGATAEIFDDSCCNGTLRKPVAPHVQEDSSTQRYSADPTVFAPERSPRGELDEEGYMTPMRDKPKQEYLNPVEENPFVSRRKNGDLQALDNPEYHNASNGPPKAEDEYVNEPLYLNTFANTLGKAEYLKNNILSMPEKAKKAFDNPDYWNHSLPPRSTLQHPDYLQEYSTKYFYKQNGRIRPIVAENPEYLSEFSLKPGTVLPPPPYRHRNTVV
T30 sequence (Q9UPE1 whole entry): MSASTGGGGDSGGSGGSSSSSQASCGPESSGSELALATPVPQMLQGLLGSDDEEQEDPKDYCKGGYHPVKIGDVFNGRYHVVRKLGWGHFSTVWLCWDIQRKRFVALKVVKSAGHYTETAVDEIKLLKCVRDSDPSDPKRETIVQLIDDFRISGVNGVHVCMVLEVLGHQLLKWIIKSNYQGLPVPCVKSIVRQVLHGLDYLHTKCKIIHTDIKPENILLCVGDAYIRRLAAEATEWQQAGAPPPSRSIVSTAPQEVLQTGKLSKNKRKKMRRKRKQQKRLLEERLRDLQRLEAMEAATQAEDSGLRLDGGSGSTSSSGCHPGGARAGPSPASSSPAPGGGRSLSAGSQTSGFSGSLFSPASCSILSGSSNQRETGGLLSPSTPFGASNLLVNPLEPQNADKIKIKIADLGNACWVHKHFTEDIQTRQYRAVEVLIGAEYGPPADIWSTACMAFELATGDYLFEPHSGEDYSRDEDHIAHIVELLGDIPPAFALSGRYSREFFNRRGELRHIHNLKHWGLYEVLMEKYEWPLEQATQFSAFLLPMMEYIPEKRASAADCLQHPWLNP
T4 sequence (Q06187 whole entry): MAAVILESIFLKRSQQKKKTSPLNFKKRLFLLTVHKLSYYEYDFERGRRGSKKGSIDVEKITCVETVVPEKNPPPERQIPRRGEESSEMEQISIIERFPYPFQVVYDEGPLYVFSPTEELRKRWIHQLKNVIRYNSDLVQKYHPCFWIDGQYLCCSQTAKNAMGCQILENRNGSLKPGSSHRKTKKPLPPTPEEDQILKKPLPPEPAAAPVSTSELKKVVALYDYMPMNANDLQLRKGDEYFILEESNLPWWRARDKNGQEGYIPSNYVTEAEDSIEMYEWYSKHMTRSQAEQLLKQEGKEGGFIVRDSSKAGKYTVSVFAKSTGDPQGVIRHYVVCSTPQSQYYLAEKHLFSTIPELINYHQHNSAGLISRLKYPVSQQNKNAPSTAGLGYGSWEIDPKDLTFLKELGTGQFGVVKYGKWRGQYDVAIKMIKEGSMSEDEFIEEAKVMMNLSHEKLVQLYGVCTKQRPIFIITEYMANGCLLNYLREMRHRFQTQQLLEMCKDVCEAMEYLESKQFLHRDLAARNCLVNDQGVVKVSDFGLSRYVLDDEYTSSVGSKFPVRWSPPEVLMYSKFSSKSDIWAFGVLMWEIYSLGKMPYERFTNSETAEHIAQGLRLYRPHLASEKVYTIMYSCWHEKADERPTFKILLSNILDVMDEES

Consider `COc1ccc2c3ccnc(C)c3n(CCN(C)C)c2c1.O=C(O)/C=C/C(=O)O` [HTW_A_8 fumarate, 2-(7-methoxy-1-methyl-9H-pyrido[3,4-b]indol-9-yl)-N,N-dimethylethan-1-amine Fumarate Salt (2:3)], for which, in the experiment on 97 kinases, the “activity at other kinases of the LIPID family (besides PIK3CG)” value is on record as “did not exhibit activity for any other kinase in the LIPID family”. In the experiment with 97 kinases (97 kinases), the kinase family selectivity entry is “selective for kinases in the CMGC family”.

As to `COc1ccc2c(c1)[nH]c1c(C)nccc12` [Harmine, harmine], the “Percent Control” value at AURKA is recorded as 85%; at AXL, 82%; on BRAF, 100%; at BTK it was 100%; at CDK2 it was 98%; on CDK3, 100%. Besides, the “Percent Control” value is 21% at CDK7; 6.1% at DYRK1B; 81% on EGFR(L858R); 83% at ERBB4; 100% on FAK; 91% on FGFR2. Further, the “Percent Control” value on FGFR3 is listed as 94%; at IKK-beta, 95%; at INSR, 100%; in experiment [1] it was 61%; at JNK2, 58%; at JNK3 it was 80%. For the same molecule, the “Percent Control” value is 72% at MAPKAPK2; 79% at MEK1; 100% at MET; 22% on MKNK2; 95% on p38-alpha; 85% on p38-beta. In addition, the “Percent Control” value at PDGFRA was 90%; on PLK1, 93%; on PRKCE it was 91%; at RIOK2, 74%; in experiment [2], 72%; at SRPK3, 84%. Further, the “Percent Control” value at TIE2 was 94%; at TRKA, 100%; in experiment [3], 96%; on YANK3, 77%.
